In patent publication US9617311B2, “Use of PEDF-derived polypeptides for promoting stem cells proliferation and wound healing” (Mackay Memorial Hospital, priority 2011, dated 2017):

How the values were obtained:
[1] = tested on: limbal epithelial stem cells (LSCs); assay: In vitro LSC proliferation, BrdU pulse-labeling with ΔNp63α immunostaining; assay type: cell-based, New Zealand white rabbits; conditions: BrdU 2 hours; for percentage of BrdU and ΔNp63α-double positive cells per total ΔNp63α-positive cells: 25 nM peptide or 4.5 nM PEDF in medium, control medium 3.0±0.5%, mean±SEM
From the text: LSCs were isolated from six-month-old New Zealand white rabbits and used for cell-suspension culture in accordance with the method previously described by Cheng et al. (The growth-promoting effect of KGF on limbal epithelial cells is mediated by upregulation of DeltaNp63alpha through the p38 pathway. J Cell Sci 2009; 122 (Pt 24): 4473-4480) and Wang et al. (Importin 13 serves as a potential marker for corneal epithelial progenitor cells. Stem Cells 2009; 27: 2516-2526) with a slight modification. Rabbit limbal tissues were washed in PBS containing 100 U/ml penicillin and 50 μg/ml gentamicin. After carefully removing the iris, and excessive sclera, the limbal rings were exposed to dispase II (1.2 IU/ml in Hanks' balanced salt solution free of Mg^2+ and Ca^2+) at 4° C. for 16 hours. The loosened epithelial sheets were removed with a cell scraper and separated into single cells by enzymatic digestion (0.05% trypsin, and 0.01% EDTA) for 15 min at 37° C. with gentle shaking and transferred to a stop medium (9 ml of HEPES-buffered DMEM containing 10% FBS). Cells were then collected by centrifugation (400×g for 5 min).
About 1×10^5 cells were seeded on each wells of a 6-well plate and incubated in a DMEM/Ham's F-12 basal medium (10 mM HEPES, 5 ng/ml human EGF, 1% SITE liquid medium, antibiotic-antimicotic solutions, 0.5% DMSO and 0.5 μg/ml hydrocortisone) supplemented with 10% FBS for 2 days, and then shifted to a basal medium or basal medium containing 4.5 nM PEDF, 25 nM 39-mer, 25 nM 34-mer, 25 nM 29-mer, 25 nM 25-mer, 25 nM 20-mer, 25 nM 18-mer, 25 nM Mo 29-mer or 25-nM Mo 20-mer. The cells were continued cultivated at 37° C. under 5% CO2 for another 3 days until they reached confluence (passage 0). LSCs were co-cultured with MMC-treated NIH-3T3 fibroblast feeder cells located within trans-well (0.4 μm pore, BD Biosciences, Bedford, Mass.). For passage purpose, near-confluent cells were harvested again by enzymatic treatment (i.e., 0.25% trypsin), and then 1×10^5 subcultured cells were further cultured in the respective medium, and proliferative capacity of cells was compared every 4 days after continuously culture-subculture (passage).
De-paraffinized tissue sections or 4% paraformaldehyde-fixed LSCs were blocked with 10% goat serum and 5% BSA in PBST (PBS containing 0.1% Tween-20) for 1 hour. Staining was done using primary antibodies against ΔNp63α (1:150 dilution), BrdU (1:250 dilution), and keratin-3 (1:250 dilution) at 37° C. for 2 hours, followed by incubation with the appropriate rhodamine- or FITC-conjugated donkey IgG (1:500 dilution) for 1 hour at RT. Nuclei were identified by counterstaining with Hoechst 33258 for 7 minutes. Images were captured using a Zeiss epifluorescence microscope with a CCD camera and photographs were taken by using the Axiovert software.
2×10^5 limbal cells (the 1st passage) were seeded at a slide coated with FNC COATING MIX® solution (Athena Enzyme Systems, Baltimore, Md.) and incubated with a culture medium for one day. BrdU (final, 10 μM) was added to the culture for 2 hours. After being fixed with 4% paraformaldehyde, cells were exposed to cold methanol for 2 minutes, and then treated with 1 N HCl at RT for 1 hour before performing immunofluorescence. For animal study, BrdU was reconstituted in DMSO as stock (80 mM). 10 μl of BrdU mixed with 90 μl of PBS was intraperitoneally injected into mouse 3 hours prior to euthanasia. DNA synthesis was assessed by BrdU labeling with anti-BrdU antibodies.

corneal wound = assay: Corneal wound healing in mice, fluorescein staining; assay type: in vivo, C57BL/6 mice; conditions: for corneal re-epithelialization after 48 hours: 20 μl eye ointment with 50 μM peptide once a day, 2 mm wound; for residual epithelial defect, percentage of the original wound: 50 μM peptide eye ointment once a day
Experimental: The experiments were performed using eight-week-old female C57BL/6 mice, and the procedures were approved by the Mackay Memorial Hospital Review Board for animal investigation. Animals were anesthetized by an intraperitoneal injection of a mixture of zoletil (6 mg/kg) and xylazine (3 mg/kg). One filter paper (0.9 mm diameter) soaked with 20% ethanol was placed on the central cornea of right eye for one minute and then irrigated extensively with PBS. Subsequently, mechanical epithelial scrape was performed using a punch under a dissection microscope to create a circular injury (2 mm diameter) at the entire corneal region of the mouse eye without encroaching the corneal stroma, limbus or conjunctiva.
Each synthetic peptide (the 39-mer, 34-mer, 29-mer, 25-mer, 20-mer, 18-mer, Mo 29-mer or Mo 20-mer) was reconstituted in DMSO as stock (5 mM) and mixed with TOBREX® eye ointment (Alcon; containing 0.3% Tobramycin and 0.5% Chlorobutanol) to a concentration 50 μM. In each of the treatment group (n=6-10), the right eye was treated with 20 μl eye ointment containing the synthetic peptide once a day after the scrape injury. In the control group (n=20), right eye was treated with 20 μl of eye ointment mixed with vehicle DMSO. Wound size was determined by staining with topical fluorescein (Fluor-I-Strip, Ayerst Laboratories, Philadelphia, Pa.) and photographed with a digital camera. The area of defect was quantified from the photographs using a computer-assisted image analyzer (Adobe Photoshop CS3 10.0) and was calculated as the percentage of residual epithelial defect at each time point/initial wound area.
To investigate the effect of PEDF-derived short peptides on corneal wound healing in mice, corneal wound was created by a circular punch (2 mm diameter), then control eye-ointment or eye-ointment containing the short synthetic PEDF peptide(s) of this invention was applied to the wounded eye, and wound healing was subsequently evaluated by fluorescein staining. No significant differences in the size of the initial abrasion were noted between synthetic PEDF peptide-treated and control mice.

[2] = tested on: full-thickness skin excisional wounds; assay: Skin wound healing in mice, wound area from photographs; assay type: in vivo, C57L/B6 mice; conditions: for residual epithelial defects, percentage of the original wound: 25 μl skin ointment with 50 μM peptide once daily
Experimental: FIG. 6A provides photographs and FIG. 6B is a histogram, and together, they illustrate the skin (epithelial) wound-healing of mice from treatment groups according to another example of the present disclosure. 4 mm punch wounds were made on the dorsal side of C57/B6 mice. Skin ointment was treated once a day. Photographs of the wounded skin and ruler (scale 10 mm) were captured with a CCD camera (Olympus). The residual epithelial defect (%) is presented as percentage of the original wound. Data are shown as mean±SE.
To perform full-thickness skin excision, 8- to 10-week-old C57L/B6 mice were respectively anesthetized by an intraperitoneal injection of a mixture of zoletil (6 mg/kg) and xylazine (3 mg/kg). Two full-thickness skin excisional wounds, 4 mm in diameter were made on either side of the dorsal midline using Sklar Tru-Punch disposable biopsy punch (Sklar, West Chester, Pa., USA). In each treatment group (n=6), the skin wound was treated with 25 μl skin ointment (containing 50 μM synthetic peptide and 0.006 μl DMSO vehicle) once daily after the skin scraping. In the control group (n=6), skin wound was treated with 25 μl of skin ointment with equal concentration of DMSO. Each gram of the above skin ointment contains 5 mg neomycin sulfate and 12.5 mg Bacitracin Zinc. Wounds were left uncovered and harvested 4 and 7 days after injury. Mice were housed individually during the healing period.
The area of wound was quantified from the photographs using a computer-assisted image analyzer (Adobe Photoshop CS3 10.0) and was calculated as the percentage of residual epithelial defect at each time point/initial wound area.

[3] = tested on: hair follicle stem cells (HFSCs); assay: In vitro HFSC proliferation, BrdU pulse-labeling with Lgr6 immunostaining; assay type: cell-based, Human; conditions: 50 nM peptide or 4.5 nM PEDF in medium; BrdU 2 hours; control 31.9±5.6%
Experimental: FIG. 5A provides immunofluorescence microscopy photographs and FIG. 5B is a histogram, and together, they illustrate the in vitro proliferation of HFSCs from treatment groups according to one example of the present disclosure. HFSC proliferation was determined by BrdU labeling for 2 hours. HFSCs (Lgr6, green) and BrdU (red) were detected by immunofluorescence microscopy (original magnification, ×1000). Twenty randomly selected fields in each group were photographed, and the percentage of BrdU and Lgr6-double positive cells (pale pink) per total Lgr6-positive cells was calculated. *P<0.001 versus untreated cells.
Human hair follicles were collected from hairs of healthy donors. The follicles were dissected with tweezers under microscope and most of adipose and connective tissue was removed. The bulge region of hair follicle under the sebaceous gland was cut and then bulge fragments (including central isthmus) were transferred into a 35-mm dish containing 1 ml of collagenase A (1 mg/ml; Roche) and incubated for 1.5 hours at 37° C. to digest the collagen capsule. Subsequently, the bulge fragments were transferred into a fresh cell culture dish containing dispase II (2.4 U/ml)/0.05% trypsin and further incubated for 1.5 hours at 37° C. to obtain a single cell suspension.
After mechanical dissection and enzymatic digestion, the suspended bulge cells isolated from five bulge fragments were seeded into a well of 12-well culture plate and incubated with the basal medium for 5 days to facilitate cell adhesion. The basal medium contains four parts Gibco calcium-free Dulbecco's modified Eagle's medium (DMEM) and one part Ham's F12 medium (calcium concentration reached about 0.25 mM) and supplemented with 10% FBS, 10 ng/ml human epidermal growth factor, 500 mg/I L-glutamine, 0.2% bovine pituitary extract, […] hydrocortisone, 1% ITSE as well as antibiotic-antimicotic solutions. Cultivation method was similar to that of Blazejewska et al. (Stem Cells 2009; 27:642). After 5 days of incubation, cells were cultured in the serum-free basal medium or basal medium containing 4.5 nM PEDF, 50 nM 29-mer, or 50 nM 20-mer, until near confluence (about 2 weeks; passage 0). The medium was changed every 2 to 3 days. The bulge cells were co-cultured with 3T3 fibroblast feeder cells. For passage, near-confluent cells were harvested by enzymatic treatment (i.e., 0.25% trypsin) for 5 min at 37° C. Approximately 1×10^5 human bulge cells were transferred to a new dish and allowed to grow for 14 days to near confluence (passage 1). […]

[4] = day 4 post-injury, control 61.5±3.2%
[5] = day 7 post-injury, control 44.5±5.3%

ALSALSLGAEQRTESIIHRALYYDLISSPDIHGT [34-mer, short synthetic PEDF peptide derived from the 39-mer]
percentage of BrdU and ΔNp63α-double positive cells per total ΔNp63α-positive cells [1]: 30.0±3.4%
corneal re-epithelialization after 48 hours (corneal wound): complete corneal re-epithelialization
residual epithelial defect, percentage of the original wound (corneal wound; 24 hours, control 84.9±5.1%): 40.6±7.2%
residual epithelial defect, percentage of the original wound (corneal wound; 48 hours, control 39.5±3.1%): 4.6±2.1%
residual epithelial defects, percentage of the original wound [2, 4]: 41.4±2.5%
residual epithelial defects, percentage of the original wound [2, 5]: 17.9±6.1%

EQRTESIIHRALYYDLISSPDIHGT [25-mer]
enhanced LSC proliferation versus control medium ([1]; 25 nM peptide in medium): enhanced proliferation was not observed
corneal re-epithelialization after 48 hours (corneal wound): incompletely healed wounds
promotion of skin wound healing ([2]; days 4 and 7, 50 μM peptide skin ointment once daily): not able to promote wound healing

LSVATALSALSLGAEQRTESIIHRALYYDLISSPDIHGT [39-mer, synthetic peptide, residues 83-121 of human PEDF]
percentage of BrdU and ΔNp63α-double positive cells per total ΔNp63α-positive cells [1]: 30.1±1.9%
corneal re-epithelialization after 48 hours (corneal wound): complete corneal re-epithelialization
residual epithelial defect, percentage of the original wound (corneal wound; 24 hours, control 84.9±5.1%): 37.2±4.3%
residual epithelial defect, percentage of the original wound (corneal wound; 48 hours, control 39.5±3.1%): 4.8±2.7%
residual epithelial defects, percentage of the original wound [2, 4]: 48.1±3.2%
residual epithelial defects, percentage of the original wound [2, 5]: 18.4±5.7%

B1: full-length PEDF: Native human pigment epithelium-derived factor purified from human plasma via collagen I-sepharose resin (protein, listed as Homo sapiens)
chain: MQALVLLLCIGALLGHSSCQNPASPPEEGSPDPDSTGALVEEEDPFFKVPVNKLAAAVSNFGYDLYRVRSSTSPTTNVLLSPLSVATALSALSLGAEQRTESIIHRALYYDLISSPDIHGTYKELLDTVTAPQKNLKSASRIVFEKKLRIKSSFVAPLEKSYGTRPRVLTGNPRLDLQEINNWVQAQMKGKLARSTKEIPDEISILLLGVAHFKGQWVTKFDSRKTSLEDFYLDEERTVRVPMMSDPKAVLRYGLDSDLSCKIAQLPLTGSMSIIFFLPLKVTQNLTLIEESLTSEFIHDIDRELKTVQAVLTVPKLKLSYEGEVTKSLQEMKLQSLFDSPDFSKITGKPIKLTQVEHRAGFEWNEDGAGTTPSPGLQPAHLTFPLDYHLNQPFIFVLRDTDTGALLFIGKILDPRGP
percentage of BrdU and ΔNp63α-double positive cells per total ΔNp63α-positive cells [1]: 22.0±1.5%
percentage of BrdU and Lgr6-double positive cells per total Lgr6-positive cells [3]: 73.8±6.0%
